Source: patent US20080176902A1, “Salt III” (ASTRAZENECA AB, priority 2005, published 2008)

Molecular target: T1, recombinant human CCR1 (Homo sapiens, UniProt P32246)
T1 construct: expressed in transfected cells; membranes prepared from them
T1 sequence (P32246 1-355): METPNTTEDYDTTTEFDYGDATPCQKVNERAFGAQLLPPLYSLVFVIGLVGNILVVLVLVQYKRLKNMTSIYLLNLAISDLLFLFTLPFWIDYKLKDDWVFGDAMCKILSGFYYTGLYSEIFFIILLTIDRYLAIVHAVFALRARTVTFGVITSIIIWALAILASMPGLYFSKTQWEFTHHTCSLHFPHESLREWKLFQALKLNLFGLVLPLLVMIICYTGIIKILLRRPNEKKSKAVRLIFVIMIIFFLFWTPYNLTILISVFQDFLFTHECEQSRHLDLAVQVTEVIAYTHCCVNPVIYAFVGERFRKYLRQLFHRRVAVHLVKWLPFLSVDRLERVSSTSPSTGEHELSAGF
Test: Human CCR1 binding assay ([125I] MIP-1α displacement, HEK-CCR1 membranes)
Conditions: HEK293 membranes expressing recombinant human CCR1; 33 pM [125I] MIP-1α
Experimental: HEK293 cells, from ECACC, stably expressing recombinant human CCR1 (HEK-CCR1) were used to prepare cell membranes containing CCR1. The membranes were stored at −70° C. The concentration of membranes of each batch was adjusted to 10% specific binding of 33 pM [^125I] MIP-1α.
100 μL of HEK-CCR1 membranes diluted in assay buffer pH 7.4 (137 mM NaCl (Merck, Cat No 1.06404), 5.7 mM Glucose (Sigma, Cat No G5400), 2.7 mM KCl (Sigma, Cat No P-9333), 0.36 mM NaH2PO4×H2O (Merck, Cat No 1.06346), 10 mM HEPES (Sigma, Cat No H3375), 0.1% (w/v) Gelatine (Sigma, Cat No G2625)) with the addition of 17500 units/L Bacitracin (Sigma, Cat No B1025) were added to each well of the 96 well filter plate (0.45 μm opaque Millipore cat no MHVB N4550). […] 12 μl assay buffer with 10% DMSO was added to certain wells (without compound) to detect maximal binding (B0).
12 μL [^125I] MIP-1α, diluted in assay buffer to a final concentration in the wells of 33 pM, was added to all wells. The plates with lid were then incubated for 1.5 hrs at room temperature. After incubation the wells were emptied by vacuum filtration (MultiScreen Resist Vacuum Manifold system, Millipore) and washed once with 200 μl assay buffer. After the wash, all wells received an addition of 50 μL of scintillation fluid (OptiPhase “Supermix”, Wallac Oy, Turko, Finland). Bound [^125I] MIP-1: was measured using a Wallac Trilux 1450 MicroBeta counter. […]

IC50: < 50 nM
SMILES: CC(=O)Nc1ccc(O)cc1OC[C@@](C)(O)CNC1CCN(Cc2ccc(Cl)cc2)CC1 [N-{2-[((2S)-3-{[1-(4-chlorobenzyl)piperidin-4-yl]amino}-2-hydroxy-2-methylpropyl)oxy]-4-hydroxyphenyl}acetamide ditrifluoroacetate]
